Experimental data: PMC9030254, “Target Hopping from Protein Kinases to PXR: Identification of Small-Molecule Protein Kinase Inhibitors as Selective Modulators of Pregnane X Receptor from TüKIC Library” (Cells, 2022)

Columns and labels:
Experiment in all cases: Kinase profiling
Assay type in all cases: biochemical
CK1alpha1 = target: T1, CK1alpha1 (Homo sapiens, UniProt P48729)
T1 construct: purchased ProQinase (Freiburg, Germany)
Experimental: (§1) The analysis was performed by ProQinase (Freiburg, Germany).

CK2alpha2 = target: T2, CK2alpha2 (Homo sapiens, UniProt P19784)
T2 construct: purchased ProQinase (Freiburg, Germany)
Experimental: as §1

DAPK1 = target: T3, DAPK1 (Homo sapiens, UniProt P53355)
T3 construct: purchased ProQinase (Freiburg, Germany)
Experimental: as §1

GSG2 = target: T4, GSG2 (Homo sapiens, UniProt Q8TF76)
T4 construct: purchased ProQinase (Freiburg, Germany)
T4 sequence (Q8TF76 1-798): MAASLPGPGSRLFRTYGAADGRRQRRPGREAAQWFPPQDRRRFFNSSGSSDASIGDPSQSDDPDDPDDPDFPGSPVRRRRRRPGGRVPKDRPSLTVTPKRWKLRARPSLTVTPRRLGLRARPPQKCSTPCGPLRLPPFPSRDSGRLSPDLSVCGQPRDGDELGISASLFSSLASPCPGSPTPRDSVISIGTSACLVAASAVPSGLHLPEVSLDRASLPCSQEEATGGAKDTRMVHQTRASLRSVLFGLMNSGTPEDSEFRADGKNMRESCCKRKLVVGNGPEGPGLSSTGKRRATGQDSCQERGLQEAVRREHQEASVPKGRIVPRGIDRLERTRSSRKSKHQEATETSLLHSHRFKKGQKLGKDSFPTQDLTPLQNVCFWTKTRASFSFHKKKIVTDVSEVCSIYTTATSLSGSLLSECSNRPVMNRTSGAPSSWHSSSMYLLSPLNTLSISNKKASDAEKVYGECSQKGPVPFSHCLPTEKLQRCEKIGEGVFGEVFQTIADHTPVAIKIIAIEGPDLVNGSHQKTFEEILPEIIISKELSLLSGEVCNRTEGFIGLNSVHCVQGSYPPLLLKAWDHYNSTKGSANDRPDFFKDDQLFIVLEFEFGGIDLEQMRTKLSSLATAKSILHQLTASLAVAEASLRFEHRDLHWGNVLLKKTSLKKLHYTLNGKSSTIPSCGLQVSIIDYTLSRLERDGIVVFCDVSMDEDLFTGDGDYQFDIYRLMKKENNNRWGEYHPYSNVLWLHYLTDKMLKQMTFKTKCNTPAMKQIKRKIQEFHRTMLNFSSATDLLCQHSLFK
Experimental: as §1

HIPK3 = target: T5, HIPK3 (Homo sapiens, UniProt Q9H422)
T5 construct: purchased ProQinase (Freiburg, Germany)
Experimental: as §1

INSRR = target: T6, INSRR (Homo sapiens, UniProt P14616)
T6 construct: purchased ProQinase (Freiburg, Germany)
T6 sequence (P14616 27-1297): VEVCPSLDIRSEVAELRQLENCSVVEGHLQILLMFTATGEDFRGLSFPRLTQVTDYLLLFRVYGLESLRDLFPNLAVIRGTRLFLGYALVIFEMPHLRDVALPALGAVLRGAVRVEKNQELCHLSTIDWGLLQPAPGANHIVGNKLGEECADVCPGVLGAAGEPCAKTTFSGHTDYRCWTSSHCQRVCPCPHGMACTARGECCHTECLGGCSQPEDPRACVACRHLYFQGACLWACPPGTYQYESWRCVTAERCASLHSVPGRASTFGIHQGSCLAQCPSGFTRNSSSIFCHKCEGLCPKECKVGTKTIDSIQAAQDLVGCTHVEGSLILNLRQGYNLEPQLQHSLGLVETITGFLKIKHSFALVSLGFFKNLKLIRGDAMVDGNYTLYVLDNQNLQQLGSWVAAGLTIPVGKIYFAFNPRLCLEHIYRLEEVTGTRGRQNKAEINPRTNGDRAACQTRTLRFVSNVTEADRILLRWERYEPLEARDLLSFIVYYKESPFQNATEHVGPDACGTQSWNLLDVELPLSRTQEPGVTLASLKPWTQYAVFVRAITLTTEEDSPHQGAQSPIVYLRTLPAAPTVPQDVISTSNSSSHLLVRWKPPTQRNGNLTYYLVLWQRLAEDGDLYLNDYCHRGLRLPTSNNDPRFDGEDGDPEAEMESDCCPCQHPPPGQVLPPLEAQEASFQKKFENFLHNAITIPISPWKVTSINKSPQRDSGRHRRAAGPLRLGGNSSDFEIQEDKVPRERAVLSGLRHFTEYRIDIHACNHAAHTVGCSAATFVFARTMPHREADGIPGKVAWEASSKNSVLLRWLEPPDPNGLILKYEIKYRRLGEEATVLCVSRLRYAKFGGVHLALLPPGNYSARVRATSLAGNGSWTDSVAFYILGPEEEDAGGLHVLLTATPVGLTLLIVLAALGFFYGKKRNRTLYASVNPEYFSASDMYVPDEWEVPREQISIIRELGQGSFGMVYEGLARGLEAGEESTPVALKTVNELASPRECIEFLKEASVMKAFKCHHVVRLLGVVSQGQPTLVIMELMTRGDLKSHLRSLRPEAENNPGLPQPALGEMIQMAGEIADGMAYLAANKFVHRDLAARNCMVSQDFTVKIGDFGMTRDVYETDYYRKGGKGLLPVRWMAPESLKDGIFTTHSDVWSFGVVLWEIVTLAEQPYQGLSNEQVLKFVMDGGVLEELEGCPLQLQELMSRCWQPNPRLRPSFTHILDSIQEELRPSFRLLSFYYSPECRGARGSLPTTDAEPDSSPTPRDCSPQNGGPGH
Experimental: as §1

LIMK2 = target: T7, LIMK2 (Homo sapiens, UniProt P53671)
T7 construct: purchased ProQinase (Freiburg, Germany)
Experimental: as §1

MARK1 = target: T8, MARK1 (Homo sapiens, UniProt Q9P0L2)
T8 construct: purchased ProQinase (Freiburg, Germany)
Experimental: as §1

MLK4 = target: T9, MLK4 (Homo sapiens, UniProt Q5TCX8)
T9 construct: purchased ProQinase (Freiburg, Germany)
T9 sequence (Q5TCX8 whole entry): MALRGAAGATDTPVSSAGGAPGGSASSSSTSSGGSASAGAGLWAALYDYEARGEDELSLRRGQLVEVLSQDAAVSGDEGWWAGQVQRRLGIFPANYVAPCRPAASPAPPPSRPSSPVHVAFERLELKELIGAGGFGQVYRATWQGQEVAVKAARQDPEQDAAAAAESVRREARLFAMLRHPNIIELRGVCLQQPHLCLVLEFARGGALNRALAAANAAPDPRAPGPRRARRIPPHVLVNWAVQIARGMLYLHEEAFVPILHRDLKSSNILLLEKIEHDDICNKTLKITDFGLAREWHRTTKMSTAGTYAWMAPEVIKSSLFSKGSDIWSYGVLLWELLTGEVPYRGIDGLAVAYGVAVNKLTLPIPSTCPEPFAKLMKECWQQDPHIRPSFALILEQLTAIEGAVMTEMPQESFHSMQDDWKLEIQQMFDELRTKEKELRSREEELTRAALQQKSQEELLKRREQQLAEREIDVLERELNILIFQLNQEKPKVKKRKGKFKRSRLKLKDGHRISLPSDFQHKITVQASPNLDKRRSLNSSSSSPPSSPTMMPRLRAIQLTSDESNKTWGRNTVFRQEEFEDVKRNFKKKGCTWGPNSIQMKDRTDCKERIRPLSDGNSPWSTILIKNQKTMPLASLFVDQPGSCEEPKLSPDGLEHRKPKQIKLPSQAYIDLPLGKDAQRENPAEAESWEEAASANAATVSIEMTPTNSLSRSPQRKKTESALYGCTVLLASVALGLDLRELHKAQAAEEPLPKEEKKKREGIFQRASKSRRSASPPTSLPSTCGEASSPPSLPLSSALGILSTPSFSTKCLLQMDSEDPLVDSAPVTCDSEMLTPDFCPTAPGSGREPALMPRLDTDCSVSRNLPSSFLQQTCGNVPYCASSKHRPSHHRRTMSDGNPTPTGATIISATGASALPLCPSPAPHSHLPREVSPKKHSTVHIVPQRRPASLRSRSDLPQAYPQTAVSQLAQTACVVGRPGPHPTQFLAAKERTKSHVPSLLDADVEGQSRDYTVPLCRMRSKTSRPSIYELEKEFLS
Experimental: as §1

PDGFRbeta = target: T10, PDGFRbeta (Homo sapiens, UniProt P09619)
T10 construct: purchased ProQinase (Freiburg, Germany)
Experimental: as §1

PIM3 = target: T11, PIM3 (Homo sapiens, UniProt Q86V86)
T11 construct: purchased ProQinase (Freiburg, Germany)
Experimental: as §1

PKCbeta2 = target: T12, PKCbeta2 (Homo sapiens, UniProt P05771)
T12 construct: purchased ProQinase (Freiburg, Germany)
Experimental: as §1

RPS6KA4 = target: T13, RPS6KA4 (Homo sapiens, UniProt O75676)
T13 construct: purchased ProQinase (Freiburg, Germany)
Experimental: as §1

SGK2 = target: T14, SGK2 (Homo sapiens, UniProt Q9HBY8)
T14 construct: purchased ProQinase (Freiburg, Germany)
T14 sequence (Q9HBY8 1-367): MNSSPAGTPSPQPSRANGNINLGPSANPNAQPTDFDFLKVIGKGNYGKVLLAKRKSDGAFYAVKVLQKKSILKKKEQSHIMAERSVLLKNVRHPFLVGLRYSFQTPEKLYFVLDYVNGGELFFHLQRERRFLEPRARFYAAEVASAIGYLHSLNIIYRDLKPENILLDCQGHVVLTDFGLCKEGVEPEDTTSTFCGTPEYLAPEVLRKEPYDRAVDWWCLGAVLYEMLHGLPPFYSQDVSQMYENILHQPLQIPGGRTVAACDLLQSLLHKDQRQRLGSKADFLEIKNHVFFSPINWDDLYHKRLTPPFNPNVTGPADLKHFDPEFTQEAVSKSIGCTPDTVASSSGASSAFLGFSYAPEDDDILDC
Experimental: as §1

TRKA = target: T15, TRKA (Homo sapiens, UniProt P04629)
T15 construct: purchased ProQinase (Freiburg, Germany)
T15 sequence (P04629 33-796): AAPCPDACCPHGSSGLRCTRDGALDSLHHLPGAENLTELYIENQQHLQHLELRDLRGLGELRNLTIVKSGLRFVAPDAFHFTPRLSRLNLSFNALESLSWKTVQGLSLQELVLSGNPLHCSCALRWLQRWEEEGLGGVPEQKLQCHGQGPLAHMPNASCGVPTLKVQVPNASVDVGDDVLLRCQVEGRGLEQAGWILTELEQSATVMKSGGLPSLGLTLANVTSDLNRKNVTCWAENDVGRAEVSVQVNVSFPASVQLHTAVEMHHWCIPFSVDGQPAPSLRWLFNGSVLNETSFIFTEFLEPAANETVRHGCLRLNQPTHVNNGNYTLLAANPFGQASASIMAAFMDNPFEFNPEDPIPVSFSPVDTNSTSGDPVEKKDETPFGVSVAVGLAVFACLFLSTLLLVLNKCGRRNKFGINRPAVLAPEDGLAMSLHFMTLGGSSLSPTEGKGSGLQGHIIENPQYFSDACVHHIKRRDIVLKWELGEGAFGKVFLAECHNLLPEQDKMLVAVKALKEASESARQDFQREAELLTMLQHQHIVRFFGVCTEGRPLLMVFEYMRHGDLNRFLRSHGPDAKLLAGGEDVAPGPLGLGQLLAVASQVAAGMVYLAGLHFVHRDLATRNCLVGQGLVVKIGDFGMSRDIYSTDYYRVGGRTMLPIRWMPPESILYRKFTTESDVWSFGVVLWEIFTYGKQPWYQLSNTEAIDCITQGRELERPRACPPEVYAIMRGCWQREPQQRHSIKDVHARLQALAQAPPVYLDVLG
Experimental: as §1

TRKB = target: T16, TRKB (Homo sapiens, UniProt Q16620)
T16 construct: purchased ProQinase (Freiburg, Germany)
T16 sequence (Q16620 32-822): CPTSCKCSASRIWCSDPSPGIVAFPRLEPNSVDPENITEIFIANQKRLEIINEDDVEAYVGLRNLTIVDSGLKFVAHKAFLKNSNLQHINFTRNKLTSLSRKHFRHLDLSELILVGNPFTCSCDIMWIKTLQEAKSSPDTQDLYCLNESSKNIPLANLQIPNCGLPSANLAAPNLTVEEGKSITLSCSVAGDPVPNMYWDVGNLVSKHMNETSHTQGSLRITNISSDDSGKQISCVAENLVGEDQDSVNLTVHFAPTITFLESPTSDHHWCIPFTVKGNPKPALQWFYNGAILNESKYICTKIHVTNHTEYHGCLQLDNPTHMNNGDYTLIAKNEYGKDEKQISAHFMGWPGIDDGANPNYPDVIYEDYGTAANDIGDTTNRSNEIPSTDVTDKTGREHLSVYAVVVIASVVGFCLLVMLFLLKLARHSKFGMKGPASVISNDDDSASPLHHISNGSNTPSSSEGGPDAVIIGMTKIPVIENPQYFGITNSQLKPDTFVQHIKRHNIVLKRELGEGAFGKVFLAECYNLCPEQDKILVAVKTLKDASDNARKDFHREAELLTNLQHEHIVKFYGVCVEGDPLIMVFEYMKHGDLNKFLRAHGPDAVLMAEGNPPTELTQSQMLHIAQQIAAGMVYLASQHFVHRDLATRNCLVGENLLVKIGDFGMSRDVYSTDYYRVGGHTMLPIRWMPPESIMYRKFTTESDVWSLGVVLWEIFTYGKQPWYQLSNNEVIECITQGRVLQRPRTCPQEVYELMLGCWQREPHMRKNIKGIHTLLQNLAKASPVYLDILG
Experimental: as §1

p38beta = target: T17, p38beta (Homo sapiens, UniProt Q15759); conditions: for inhibition at 10 µM: read-out: inhibition of p38β
T17 construct: purchased ProQinase (Freiburg, Germany)
T17 sequence (Q15759 whole entry): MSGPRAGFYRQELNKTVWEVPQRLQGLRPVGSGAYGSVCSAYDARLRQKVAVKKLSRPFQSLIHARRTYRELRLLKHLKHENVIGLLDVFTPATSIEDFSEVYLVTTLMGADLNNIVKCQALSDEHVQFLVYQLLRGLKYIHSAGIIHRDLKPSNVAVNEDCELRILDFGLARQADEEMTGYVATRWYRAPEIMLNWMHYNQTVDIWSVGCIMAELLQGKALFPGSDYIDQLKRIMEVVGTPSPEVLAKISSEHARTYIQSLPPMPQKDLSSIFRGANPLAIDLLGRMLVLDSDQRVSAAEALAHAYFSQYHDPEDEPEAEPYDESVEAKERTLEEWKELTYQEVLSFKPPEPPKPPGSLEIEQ
Experimental: as §1

T1 sequence (P48729 whole entry): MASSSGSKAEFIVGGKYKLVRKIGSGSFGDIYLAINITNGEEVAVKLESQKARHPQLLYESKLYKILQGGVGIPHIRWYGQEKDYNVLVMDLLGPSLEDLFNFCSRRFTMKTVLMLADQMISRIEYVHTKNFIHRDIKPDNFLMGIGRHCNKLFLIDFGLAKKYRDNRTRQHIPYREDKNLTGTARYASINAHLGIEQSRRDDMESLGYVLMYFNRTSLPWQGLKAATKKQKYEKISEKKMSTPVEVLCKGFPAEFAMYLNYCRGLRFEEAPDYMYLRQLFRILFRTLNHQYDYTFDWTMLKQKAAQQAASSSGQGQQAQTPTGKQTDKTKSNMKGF

SMILES | Residual activity (CK1alpha1; 1.0E-05 M) | Residual activity (CK1alpha1; 1.0E-06 M) | Residual activity (CK2alpha2; 1.0E-05 M) | Residual activity (CK2alpha2; 1.0E-06 M) | Residual activity (DAPK1; 1.0E-05 M) | Residual activity (DAPK1; 1.0E-06 M) | Residual activity (GSG2; 1.0E-05 M) | Residual activity (GSG2; 1.0E-06 M) | Residual activity (HIPK3; 1.0E-05 M) | Residual activity (HIPK3; 1.0E-06 M) | Residual activity (INSRR; 1.0E-05 M) | Residual activity (INSRR; 1.0E-06 M) | Residual activity (LIMK2; 1.0E-05 M) | Residual activity (LIMK2; 1.0E-06 M) | Residual activity (MARK1; 1.0E-05 M) | Residual activity (MARK1; 1.0E-06 M) | Residual activity (MLK4; 1.0E-05 M) | Residual activity (MLK4; 1.0E-06 M) | Residual activity (PDGFRbeta; 1.0E-05 M) | Residual activity (PDGFRbeta; 1.0E-06 M) | also measured
O=C(Cc1ccccc1)Nc1ccc(F)c(Nc2ccc3c(c2)CCCCC3=O)c1 [Compound 100] | 108 % of control | 112 % of control | 134 % of control | 137 % of control | 110 % of control | 127 % of control | 78 % of control | 92 % of control | 87 % of control | 88 % of control | 90 % of control | 92 % of control | 82 % of control | 95 % of control | 90 % of control | 91 % of control | 102 % of control | 94 % of control | 99 % of control | 100 % of control | Residual activity (PIM3; 1.0E-05 M): 89 % of control; Residual activity (PIM3; 1.0E-06 M): 90 % of control; Residual activity (PKCbeta2; 1.0E-05 M): 84 % of control; Residual activity (PKCbeta2; 1.0E-06 M): 105 % of control; Residual activity (RPS6KA4; 1.0E-05 M): 93 % of control; Residual activity (RPS6KA4; 1.0E-06 M): 93 % of control; Residual activity (SGK2; 1.0E-05 M): 93 % of control; Residual activity (SGK2; 1.0E-06 M): 101 % of control; Residual activity (TRKA; 1.0E-05 M): 94 % of control; Residual activity (TRKA; 1.0E-06 M): 107 % of control; Residual activity (TRKB; 1.0E-05 M): 74 % of control; Residual activity (TRKB; 1.0E-06 M): 105 % of control; inhibition at 10 µM (p38beta): ≥ 50%; Residual activity (p38beta; 1.0E-05 M): 50 % of control; Residual activity (p38beta; 1.0E-06 M): 71 % of control
O=C(Nc1ccc(F)c(Nc2ccc3c(c2)CCCCC3=O)c1)c1cccc(F)c1 [Compound 109] | 102 % of control | 108 % of control | 118 % of control | 119 % of control | 102 % of control | 109 % of control | 68 % of control | 93 % of control | 90 % of control | 89 % of control | 83 % of control | 92 % of control | 93 % of control | 98 % of control | 99 % of control | 87 % of control | 99 % of control | 99 % of control | 99 % of control | 98 % of control | Residual activity (PIM3; 1.0E-05 M): 102 % of control; Residual activity (PIM3; 1.0E-06 M): 89 % of control; Residual activity (PKCbeta2; 1.0E-05 M): 90 % of control; Residual activity (PKCbeta2; 1.0E-06 M): 97 % of control; Residual activity (RPS6KA4; 1.0E-05 M): 95 % of control; Residual activity (RPS6KA4; 1.0E-06 M): 95 % of control; Residual activity (SGK2; 1.0E-05 M): 96 % of control; Residual activity (SGK2; 1.0E-06 M): 97 % of control; Residual activity (TRKA; 1.0E-05 M): 97 % of control; Residual activity (TRKA; 1.0E-06 M): 101 % of control; Residual activity (TRKB; 1.0E-05 M): 92 % of control; Residual activity (TRKB; 1.0E-06 M): 101 % of control; inhibition at 10 µM (p38beta): ≥ 50%; Residual activity (p38beta; 1.0E-05 M): 2 % of control; Residual activity (p38beta; 1.0E-06 M): 3 % of control
